SMILES | logP
CCc1cccc(CC)c1 | 4.16
C/C=C/CCCCC | 4.51
CCc1ccc(CC)cc1 | 4.22
Cc1cccc2[nH]ccc12 | 2.54
OCc1c2ccccc2cc2ccccc12 | 3.04
Oc1cccc2c1CCCC2 | 2.87
Cc1[nH]c2ccccc2c1C | 2.51
CCCCCCCCCCCCc1ccc(O)cc1O | 5.32
CCn1c2ccccc2c2ccccc21 | 3.97
CCc1ccccc1CC | 4.1
CC(C)(C)C1CCCCC1 | 5.04
CCc1ccccc1O | 2.36
CCC1CCCCC1 | 4.56
CCCCCCc1ccc(O)cc1O | 3.07
O=Cc1ccc(Cl)cc1 | 2.34
Oc1ccc(O)c2ccccc12 | 2.24
CCCCCCCc1ccccc1 | 5.37
CC1CCCCC1 | 4.17
OCc1ccc2ccccc2c1 | 2.42

From the SangsterLogP compilation
